Reference: ChEMBL document CHEMBL4177628, “Discovery of a class of diheteroaromatic amines as orally bioavailable CDK1/4/6 inhibitors” (Bioorg Med Chem Lett, 2017)

What was measured:
[1] = target: Cyclin-dependent kinase 4 (Homo sapiens, UniProt P11802); assay: Inhibition of CDK4 (unknown origin) using U-light as substrate preincubated for 1 hr followed by EDTA addition measured after 1 hr by LANCE Ultra kinase assay
[2] = target: Cyclin-dependent kinase 1 (Homo sapiens, UniProt P06493); assay: Inhibition of CDK1 (unknown origin) using U-light as substrate preincubated for 1 hr followed by EDTA addition measured after 1 hr by LANCE Ultra kinase assay
Cyclin-dependent kinase 1, sequence (P06493 whole entry): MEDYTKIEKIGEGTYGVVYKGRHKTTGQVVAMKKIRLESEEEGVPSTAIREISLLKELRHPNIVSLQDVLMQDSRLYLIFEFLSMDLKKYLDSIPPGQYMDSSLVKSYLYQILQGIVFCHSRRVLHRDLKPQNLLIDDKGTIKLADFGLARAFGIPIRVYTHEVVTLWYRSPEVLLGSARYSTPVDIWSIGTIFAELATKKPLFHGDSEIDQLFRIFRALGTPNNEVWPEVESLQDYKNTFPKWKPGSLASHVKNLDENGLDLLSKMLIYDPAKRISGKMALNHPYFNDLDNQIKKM

COLO 205 [3] = assay: Antiproliferative activity against human COLO205 cells after 96 hrs by CCK-8 assay; format: functional, cell-based; details: COLO 205, 96 h
[4] = target: Cyclin-dependent kinase 6 (Homo sapiens, UniProt Q00534); assay: Inhibition of CDK6 (unknown origin) using U-light as substrate preincubated for 1 hr followed by EDTA addition measured after 1 hr by LANCE Ultra kinase assay
Cyclin-dependent kinase 6, sequence (Q00534 whole entry): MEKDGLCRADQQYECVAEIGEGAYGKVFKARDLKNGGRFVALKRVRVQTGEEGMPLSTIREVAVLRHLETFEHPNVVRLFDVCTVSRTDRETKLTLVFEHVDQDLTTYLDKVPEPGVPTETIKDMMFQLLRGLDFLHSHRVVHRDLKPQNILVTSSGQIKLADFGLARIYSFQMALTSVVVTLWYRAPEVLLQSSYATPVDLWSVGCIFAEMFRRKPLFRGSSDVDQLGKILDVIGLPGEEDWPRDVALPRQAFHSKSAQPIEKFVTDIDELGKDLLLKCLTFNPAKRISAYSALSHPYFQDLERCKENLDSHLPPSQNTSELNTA

[5] = AUC in ICR mouse at 1 mg/kg, iv; format: ADME, organism-based; details: in vivo
[6] = Clearance in ICR mouse at 1 mg/kg, iv; format: ADME, organism-based; details: in vivo
[7] = Volume of distribution at steady state in ICR mouse at 1 mg/kg, iv; format: ADME, organism-based; details: in vivo, read-out: Vdss
[8] = Cmax in ICR mouse at 1 mg/kg, iv; format: ADME, organism-based; set-up: dose 1 mg/kg, route intravenous; details: in vivo
[9] = Half life in ICR mouse at 1 mg/kg, iv; format: ADME, organism-based; details: in vivo
[10] = AUC in ICR mouse at 5 mg/kg, po; format: ADME, organism-based; details: in vivo
COLO 205 [11] = assay: Antitumor activity against human COLO205 cells xenografted in nude BALB/c mouse assessed as tumor volume administered once daily for 3 weeks measured twice per week relative to control; format: functional
Mus musculus = assay: Toxicity in nude BALB/c mouse xenografted with human COLO205 cells assessed as change in body weight at 25 to 100 mg/kg, po administered once daily for 3 weeks; format: organism-based; details: in vivo, 504 h
COLO 205 [12] = assay: Antitumor activity against human COLO205 cells xenografted in nude BALB/c mouse assessed as tumor volume at 25 mg/kg, po administered once daily for 3 weeks measured twice per week relative to control relative to control; format: functional
[13] = Oral bioavailability in ICR mouse at 5 mg/kg; format: ADME, organism-based; details: in vivo
COLO 205 [14] = assay: Antitumor activity against human COLO205 cells xenografted in nude BALB/c mouse assessed as tumor volume at 100 mg/kg, po administered once daily for 3 weeks measured twice per week relative to control; format: functional

Cyclin-dependent kinase 4, sequence (P11802 whole entry): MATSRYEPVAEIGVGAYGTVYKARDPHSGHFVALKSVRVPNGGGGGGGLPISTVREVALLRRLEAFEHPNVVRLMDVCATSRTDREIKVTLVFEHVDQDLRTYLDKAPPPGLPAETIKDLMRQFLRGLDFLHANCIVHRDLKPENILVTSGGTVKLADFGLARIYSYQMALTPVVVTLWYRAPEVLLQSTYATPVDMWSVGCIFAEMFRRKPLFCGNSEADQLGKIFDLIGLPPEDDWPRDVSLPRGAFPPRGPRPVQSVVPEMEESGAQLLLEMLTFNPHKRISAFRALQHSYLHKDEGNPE

## CCN1CCN(Cc2ccc(Nc3cc(-c4cc(F)c5nc(C)n(C(C)C)c5c4)c(F)cn3)nn2)CC1
[1]
  IC50: 12.1 nM
[2]
  IC50: 1670 nM
COLO 205 [3]
  IC50: 630 nM

## CCN1CCN(Cc2cnc(Nc3ncnc(-c4cc(F)c5nc(C)n(C(C)C)c5c4)c3F)cn2)CC1
[1]
  IC50: 283 nM
COLO 205 [3]
  IC50: 5600 nM

## CCN1CCN(Cc2cnc(Nc3cc(-c4cc(F)c5nc(C)n(C(C)C)c5c4)ccn3)cn2)CC1
[1]
  IC50: 2.1 nM
[2]
  IC50: 35.8 nM
[4]
  IC50: 1.6 nM
COLO 205 [3]
  IC50: 50 nM

## CCN1CCN(Cc2ccc(Nc3cc(-c4cc(F)c5nc(C)n(C(C)C)c5c4)ccn3)nc2)CC1
[1]
  IC50: 2.9 nM
[2]
  IC50: 301 nM
[4]
  IC50: 2.9 nM
COLO 205 [3]
  IC50: 140 nM

## CCN1CCC(Oc2cnc(Nc3cc(-c4cc(F)c5nc(C)n(C(C)C)c5c4)ncn3)cn2)CC1
[1]
  IC50: 8.8 nM
[2]
  IC50: 231 nM
[4]
  IC50: 4 nM
COLO 205 [3]
  IC50: 460 nM

## CCN1CCN(Cc2ccc(Nc3cc(-c4cc(F)c5nc(C)n(C(C)C)c5c4)ncn3)nn2)CC1
[1]
  IC50: 13.8 nM
[2]
  IC50: 2430 nM
COLO 205 [3]
  IC50: 520 nM

## CCN1CCN(Cc2cnc(Nc3cc(-c4cc(F)c5nc(C)n(C(C)C)c5c4)c(F)cn3)cn2)CC1
[1]
  IC50: 1.6 nM
[5]
  AUC: 425 ng·h/mL
[6]
  clearance: 37.6 mL/min/kg
[2]
  IC50: 44 nM
[4]
  IC50: 1.6 nM
COLO 205 [3]
  IC50: 40 nM
[7]
  Vd: 6.44 L/kg
[8]
  Cmax: 514 ng/mL

## CCN1CCN(Cc2cnc(Nc3cc(-c4cc(F)c5nc(C)n(C(C)C)c5c4)ncn3)nc2)CC1
[1]
  IC50: 35.9 nM
[2]
  IC50: 20200 nM
COLO 205 [3]
  IC50: 3740 nM

## CCN1CCC(Cc2cnc(Nc3cc(-c4cc(F)c5nc(C)n(C(C)C)c5c4)ncn3)cn2)CC1
[1]
  IC50: 2.4 nM
[2]
  IC50: 134 nM
[4]
  IC50: 2.9 nM
COLO 205 [3]
  IC50: 320 nM

## Cc1nc2c(F)cc(-c3cc(Nc4cnc(CN5CCN(CC(F)(F)F)CC5)cn4)ncn3)cc2n1C(C)C
[1]
  IC50: 5.6 nM
[2]
  IC50: 150 nM
[4]
  IC50: 5.8 nM
COLO 205 [3]
  IC50: 530 nM

## Cc1nc2c(F)cc(-c3cc(Nc4cnc(CN5CCN(C6CCCC6)CC5)cn4)ncn3)cc2n1C(C)C
[1]
  IC50: 2.2 nM
[2]
  IC50: 101 nM
[4]
  IC50: 1.8 nM
COLO 205 [3]
  IC50: 160 nM

## Cc1nc2c(F)cc(-c3cc(Nc4cnc(CN5CCN(CC6CC6)CC5)cn4)ncn3)cc2n1C(C)C
[1]
  IC50: 2.9 nM
[2]
  IC50: 103 nM
[4]
  IC50: 2.2 nM
COLO 205 [3]
  IC50: 110 nM

## CCN1CCN(Cc2ncc(Nc3cc(-c4cc(F)c5nc(C)n(C(C)C)c5c4)ncn3)cn2)CC1
[1]
  IC50: 5160 nM

## CCN1CCN(Cc2ccc(Nc3cc(-c4cc(F)c5nc(C)n(C(C)C)c5c4)ccn3)nn2)CC1
[1]
  IC50: 5.2 nM
[2]
  IC50: 801 nM
[4]
  IC50: 23.6 nM
COLO 205 [3]
  IC50: 340 nM

## CCN1CCN(Cc2ccc(Nc3cc(-c4cc(F)c5nc(C)n(C(C)C)c5c4)ncn3)nc2)CC1
[1]
  IC50: 3.1 nM
[2]
  IC50: 412 nM
[4]
  IC50: 4.4 nM
COLO 205 [3]
  IC50: 260 nM

## CCN1CCN(Cc2cnc(Nc3cc(-c4cc(F)c5nc(C)n(C(C)C)c5c4)ncn3)cn2)CC1
[1]
  IC50: 1.5 nM
[9]
  half-life: 1.6 h
[5]
  AUC: 571 ng·h/mL
[10]
  AUC: 2550 ng·h/mL
COLO 205 [11]
  Activity: Dose-dependent effect
[6]
  clearance: 20.8 to 28.8 mL/min/kg
Mus musculus
  Activity: Non-Toxic
COLO 205 [12]
  T/C: 54.21%
[2]
  IC50: 136 nM
[4]
  IC50: 2.7 nM
COLO 205 [3]
  IC50: 210 nM
[13]
  bioavailability: 89.3%
[7]
  Vd: 0.57 L/kg
[8]
  Cmax: 998 ng/mL
COLO 205 [14]
  T/C: 12.37%

## CCN1CCC(C(C)c2cnc(Nc3cc(-c4cc(F)c5nc(C)n(C(C)C)c5c4)ncn3)cn2)CC1 (centres undefined)
[1]
  IC50: 18.3 nM
[2]
  IC50: 1410 nM
COLO 205 [3]
  IC50: 1510 nM

## Cc1nc2c(F)cc(-c3cc(Nc4cnc(CN5CCN(C(C)C)CC5)cn4)ncn3)cc2n1C(C)C
[1]
  IC50: 1.6 nM
[2]
  IC50: 97.2 nM
[4]
  IC50: 2.3 nM
COLO 205 [3]
  IC50: 140 nM

## COCCN1CCN(Cc2cnc(Nc3cc(-c4cc(F)c5nc(C)n(C(C)C)c5c4)ncn3)cn2)CC1
[1]
  IC50: 3.7 nM
[2]
  IC50: 140 nM
[4]
  IC50: 1.6 nM
COLO 205 [3]
  IC50: 140 nM

## CCN1CCN(Cc2ccc(Nc3ncc(F)c(-c4cc(F)c5nc(C)n(C(C)C)c5c4)n3)nc2)CC1 [ABEMACICLIB]
COLO 205 [3]
  IC50: 460 nM
COLO 205 [14]
  T/C: 3.95%
